The structures appear in SMILES notation.

Series [1] can be described thus: Sensory evaluation of sweetener powder by 15 panelists. The series is classed as in vivo. As to conditions: score on a scale of 5 points, 10% Brix solution. Here is the method: For the sensory evaluation, the powders prepared in Examples 5 and 6 were used as an experimental group, and sugar was used as a control group. Each sample was dissolved to a concentration of 10% Brix and prepared to become the same temperature. 10 ml of each sample was collected and provided. It was expressed as a three-digit number randomly extracted using a random number table. The sample presentation order was always randomly determined, and a lukewarm water that could rinse the mouth was provided together to inspectors. The sensory laboratory was maintained at a constant temperature (25±1° C.) and no odor.
The sensory inspectors selected 15 panelists who have a high level of understanding of sensory tests and have experience in sensory tests. Training was conducted three times a week for one month, and it took an average of 30 minutes for each training session. As for the content and method of evaluation, the score was evaluated on a scale of 5 points for the intensity of sweet taste, persistence of sweet taste, body taste, and bitter taste of the control group and the experimental group. The criteria of sweet taste intensity was compared with the standard sample sugar 10% solution as 4.5 points. The closer to 1 point, the lighter the body taste, and the closer to 5 points, the heavier the taste was.

Series [2] is described as follows: Glass transition temperature (Tg) by differential scanning calorimetry (DSC), ASTM D3418. In kind it is physicochemical. As to conditions: raw material: crystalline allulose in powder state. The method, then:
In order to measure the glass transition temperature value (Tg) of the powder product obtained in Examples 1 to 4, and Example 6, differential scanning calorimetry (DSC) analysis was performed according to the method of ASTM D3418, and the specific DSC analysis conditions are as follows.
Equipment name: DSC[differential scanning calorimetry]
Manufacturer: Perkin Elmer
Method: 30 to 250° C., 10° C./min temperature rise, N2 gas purge
The liquid product of Comparative Example 1 was not spray-dried, and measured by the glass transition temperature of the powder obtained by freeze-drying the liquid product. Allulose was measured by the glass transition temperature of crystalline allulose, Reference Example 2 was measured by the glass transition temperature of commercially available indigestible maltodextrin (Samyang Corporation, indigestible maltodextrin, DE 14.9, dietary fiber content 85%), and Reference Example 3 and Reference Example 4 were measured by pulverizing commercially available maltodextrin (Samyang Corporation., Genedex) and commercially available starch syrup (Samyang Corporation, low-intensity starch syrup) at the glass transition temperature.

Regarding `OC[C@H]1O[C@@](CO)(O[C@H]2O[C@H](CO)[C@@H](O)[C@H](O)[C@H]2O)[C@@H](O)[C@@H]1O` [Control group, sugar], the Body taste in series [1] (1 = lighter, 5 = heavier) is 3.3. Further, in series [1], the Bitter residual taste stood at 2.2 and the Sweet taste persistence turned out to be 3.2. Moreover, the Sweet taste in series [1] (sugar 10% solution standard = 4.5 points) is recorded as 4.3.

Take `O=C(CO)C(O)C(O)C(O)CO` (centres unmarked) [Crystalline allulose, allulose]: the Tg in series [2] is −5.5 °C.
